Data reported in ChEMBL document CHEMBL3525934 (Drug Metab Dispos, 2013).

What was measured:
Format in all cases: ADME
Settings in all cases: 0.5 h
Cytochrome P450 2D6 [1] = molecular target: T1, Cytochrome P450 2D6 (Homo sapiens, UniProt P10635); assay: Drug metabolism in supersomes expressing human recombinant CYP2D6 assessed as enzyme-mediated total GSH conjugate formation at 10 uM after 30 mins measured per nmol of P450 by HPLC analysis in presence of GSH and hGST P1-1
Cytochrome P450 1A2 [2] = molecular target: T2, Cytochrome P450 1A2 (Homo sapiens, UniProt P05177); assay: Drug metabolism in supersomes expressing human recombinant CYP1A2 assessed as enzyme-mediated total GSH conjugate formation at 10 uM after 30 mins measured per nmol of P450 by HPLC analysis in presence of GSH and hGST P1-1
T2 sequence (P05177 whole entry): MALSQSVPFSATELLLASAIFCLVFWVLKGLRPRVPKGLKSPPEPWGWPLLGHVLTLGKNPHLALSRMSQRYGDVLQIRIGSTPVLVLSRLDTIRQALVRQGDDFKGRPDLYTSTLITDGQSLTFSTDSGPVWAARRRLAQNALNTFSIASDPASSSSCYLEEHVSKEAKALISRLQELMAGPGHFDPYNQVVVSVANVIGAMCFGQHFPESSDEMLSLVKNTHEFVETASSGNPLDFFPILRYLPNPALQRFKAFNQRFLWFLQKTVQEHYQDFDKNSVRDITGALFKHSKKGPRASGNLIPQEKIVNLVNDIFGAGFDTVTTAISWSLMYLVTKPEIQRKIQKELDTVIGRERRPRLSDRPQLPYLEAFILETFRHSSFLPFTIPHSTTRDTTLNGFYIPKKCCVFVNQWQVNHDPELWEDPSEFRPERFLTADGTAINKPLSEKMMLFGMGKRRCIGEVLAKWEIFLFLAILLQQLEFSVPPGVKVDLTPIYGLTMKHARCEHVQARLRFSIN

Cytochrome P450 2C9 [3] = molecular target: T3, Cytochrome P450 2C9 (Homo sapiens, UniProt P11712); assay: Drug metabolism in supersomes expressing human recombinant CYP2C9 assessed as enzyme-mediated clozapine-N-oxide metabolite formation at 10 uM after 30 mins measured per nmol of P450 by HPLC analysis
T3 sequence (P11712 whole entry): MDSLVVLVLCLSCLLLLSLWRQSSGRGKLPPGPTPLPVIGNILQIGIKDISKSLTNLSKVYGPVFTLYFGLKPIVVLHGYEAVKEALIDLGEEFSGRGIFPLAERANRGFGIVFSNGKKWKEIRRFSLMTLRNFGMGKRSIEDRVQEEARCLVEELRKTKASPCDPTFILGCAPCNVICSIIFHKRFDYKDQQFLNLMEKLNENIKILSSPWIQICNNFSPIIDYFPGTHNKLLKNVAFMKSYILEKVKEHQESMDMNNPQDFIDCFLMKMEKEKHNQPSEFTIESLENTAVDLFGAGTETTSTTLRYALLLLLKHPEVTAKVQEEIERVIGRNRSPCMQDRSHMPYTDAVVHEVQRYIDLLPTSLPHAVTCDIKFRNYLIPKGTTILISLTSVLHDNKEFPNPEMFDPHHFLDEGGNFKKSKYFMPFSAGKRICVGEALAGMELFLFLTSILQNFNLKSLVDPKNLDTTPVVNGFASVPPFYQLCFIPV

Cytochrome P450 2C18 [4] = molecular target: T4, Cytochrome P450 2C18 (Homo sapiens, UniProt P33260); assay: Drug metabolism in supersomes expressing human recombinant CYP2C18 assessed as enzyme-mediated N-desmethylclozapine metabolite formation at 100 uM after 30 mins measured per nmol of P450 by HPLC analysis
T4 sequence (P33260 whole entry): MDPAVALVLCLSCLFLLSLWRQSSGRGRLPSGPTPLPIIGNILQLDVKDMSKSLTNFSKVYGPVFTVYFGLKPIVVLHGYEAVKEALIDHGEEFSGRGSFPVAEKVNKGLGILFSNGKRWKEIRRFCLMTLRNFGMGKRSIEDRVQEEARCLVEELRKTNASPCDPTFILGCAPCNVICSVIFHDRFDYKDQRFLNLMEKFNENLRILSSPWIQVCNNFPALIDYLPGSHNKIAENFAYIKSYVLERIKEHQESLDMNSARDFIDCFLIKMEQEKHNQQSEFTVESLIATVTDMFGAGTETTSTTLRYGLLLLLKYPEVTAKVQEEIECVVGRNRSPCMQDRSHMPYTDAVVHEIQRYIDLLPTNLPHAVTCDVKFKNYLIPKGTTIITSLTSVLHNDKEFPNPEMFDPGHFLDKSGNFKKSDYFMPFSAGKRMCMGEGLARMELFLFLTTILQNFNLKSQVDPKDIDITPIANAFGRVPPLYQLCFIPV

Cytochrome P450 2C19 = Cytochrome P450 2C19 (Homo sapiens, UniProt P33261); assay: Drug metabolism in supersomes expressing human recombinant CYP2C19 assessed as enzyme-mediated cyanide adduct formation at 100 uM after 30 mins measured per nmol of P450 by HPLC analysis in presence of KCN
Chain of Cytochrome P450 2C19 (P33261 whole entry): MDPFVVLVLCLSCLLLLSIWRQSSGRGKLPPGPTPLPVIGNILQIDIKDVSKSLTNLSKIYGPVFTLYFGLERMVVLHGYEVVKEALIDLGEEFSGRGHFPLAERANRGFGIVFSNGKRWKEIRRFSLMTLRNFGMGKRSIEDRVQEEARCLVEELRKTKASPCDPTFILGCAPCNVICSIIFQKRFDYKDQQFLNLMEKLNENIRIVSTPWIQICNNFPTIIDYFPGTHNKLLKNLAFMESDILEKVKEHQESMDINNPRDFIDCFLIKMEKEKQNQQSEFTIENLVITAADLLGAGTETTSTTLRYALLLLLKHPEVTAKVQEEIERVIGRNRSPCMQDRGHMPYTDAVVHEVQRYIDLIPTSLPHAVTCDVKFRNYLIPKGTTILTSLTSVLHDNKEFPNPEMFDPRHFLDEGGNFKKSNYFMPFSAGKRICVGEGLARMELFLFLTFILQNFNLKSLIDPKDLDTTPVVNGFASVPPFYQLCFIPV

Cytochrome P450 2C9 [5] = molecular target: T3, Cytochrome P450 2C9; assay: Drug metabolism in supersomes expressing human recombinant CYP2C9 assessed as enzyme-mediated N-desmethylclozapine metabolite formation at 10 uM after 30 mins measured per nmol of P450 by HPLC analysis
Cytochrome P450 2D6 [6] = molecular target: T1, Cytochrome P450 2D6; assay: Drug metabolism in supersomes expressing human recombinant CYP2D6 assessed as enzyme-mediated cyanide adduct formation at 100 uM after 30 mins measured per nmol of P450 by HPLC analysis in presence of KCN
Cytochrome P450 2D6 [7] = molecular target: T1, Cytochrome P450 2D6; assay: Drug metabolism in supersomes expressing human recombinant CYP2D6 assessed as enzyme-mediated N-desmethylclozapine metabolite formation at 10 uM after 30 mins measured per nmol of P450 by HPLC analysis
Cytochrome P450 2C18 [8] = molecular target: T4, Cytochrome P450 2C18; assay: Drug metabolism in supersomes expressing human recombinant CYP2C18 assessed as enzyme-mediated N-desmethylclozapine metabolite formation at 10 uM after 30 mins measured per nmol of P450 by HPLC analysis
Cytochrome P450 1B1 = molecular target: T5, Cytochrome P450 1B1 (Homo sapiens, UniProt Q16678); assay: Drug metabolism in supersomes expressing human recombinant CYP1B1 assessed as enzyme-mediated clozapine-N-oxide metabolite formation at 100 uM after 30 mins measured per nmol of P450 by HPLC analysis
T5 sequence (Q16678 whole entry): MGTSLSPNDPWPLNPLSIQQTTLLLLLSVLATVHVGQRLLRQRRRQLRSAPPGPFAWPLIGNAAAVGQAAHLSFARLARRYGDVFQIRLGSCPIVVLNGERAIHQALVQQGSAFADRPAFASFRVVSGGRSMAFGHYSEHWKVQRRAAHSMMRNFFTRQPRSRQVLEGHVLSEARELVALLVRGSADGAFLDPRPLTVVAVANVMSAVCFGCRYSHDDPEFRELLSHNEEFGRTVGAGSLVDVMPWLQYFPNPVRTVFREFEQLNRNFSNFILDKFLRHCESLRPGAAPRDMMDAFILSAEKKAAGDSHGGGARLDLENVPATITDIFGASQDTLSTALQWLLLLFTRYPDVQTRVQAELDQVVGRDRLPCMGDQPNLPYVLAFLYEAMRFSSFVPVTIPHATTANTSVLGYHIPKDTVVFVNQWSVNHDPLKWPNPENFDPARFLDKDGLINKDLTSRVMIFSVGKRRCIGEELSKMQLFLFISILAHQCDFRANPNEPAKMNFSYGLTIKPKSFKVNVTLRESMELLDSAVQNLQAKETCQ

Cytochrome P450 2C9 [9] = molecular target: T3, Cytochrome P450 2C9; assay: Drug metabolism in supersomes expressing human recombinant CYP2C9 assessed as enzyme-mediated cyanide adduct formation at 100 uM after 30 mins measured per nmol of P450 by HPLC analysis in presence of KCN
Cytochrome P450 1A2 [10] = molecular target: T2, Cytochrome P450 1A2; assay: Drug metabolism in supersomes expressing human recombinant CYP1A2 assessed as enzyme-mediated clozapine-N-oxide metabolite formation at 100 uM after 30 mins measured per nmol of P450 by HPLC analysis

T1 sequence (P10635 whole entry): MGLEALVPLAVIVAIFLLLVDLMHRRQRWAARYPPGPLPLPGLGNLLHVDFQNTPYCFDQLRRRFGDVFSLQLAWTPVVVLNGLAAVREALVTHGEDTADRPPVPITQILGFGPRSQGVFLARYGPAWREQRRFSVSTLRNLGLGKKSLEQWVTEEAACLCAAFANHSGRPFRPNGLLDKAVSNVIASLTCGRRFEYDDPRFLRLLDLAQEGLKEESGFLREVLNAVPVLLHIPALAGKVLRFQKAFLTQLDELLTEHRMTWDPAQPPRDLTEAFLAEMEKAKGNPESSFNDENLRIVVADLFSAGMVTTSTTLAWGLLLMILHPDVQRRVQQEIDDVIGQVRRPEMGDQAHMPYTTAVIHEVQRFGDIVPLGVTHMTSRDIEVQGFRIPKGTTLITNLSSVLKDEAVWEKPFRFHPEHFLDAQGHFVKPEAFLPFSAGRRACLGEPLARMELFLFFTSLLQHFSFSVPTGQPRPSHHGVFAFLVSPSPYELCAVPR

**Q.** Which results are given for `CN1CCN(C2=Nc3cc(Cl)ccc3Nc3ccccc32)CC1` [CLOZAPINE]?
**A.** Drug metabolism (Cytochrome P450 2D6 [1]): 0.47 nmol/min; Drug metabolism (Cytochrome P450 1A2 [2]): 0.06 nmol/min; Drug metabolism (Cytochrome P450 2C9 [3]): 0.065 nmol/min; Drug metabolism (Cytochrome P450 2C18 [4]): 5.71 nmol/min/nmol P450; Drug metabolism (Cytochrome P450 2C19): 0.03 nmol/min; Drug metabolism (Cytochrome P450 2C9 [5]): 0.33 nmol/min; Drug metabolism (Cytochrome P450 2D6 [6]): 0.64 nmol/min; Drug metabolism (Cytochrome P450 2D6 [7]): 8.43 nmol/min/nmol P450; Drug metabolism (Cytochrome P450 2C18 [8]): 4.08 nmol/min/nmol P450; Drug metabolism (Cytochrome P450 1B1): 0.64 nmol/min/nmol P450; Drug metabolism (Cytochrome P450 2C9 [9]): 0.01 nmol/min; Drug metabolism (Cytochrome P450 1A2 [10]): 3.7 nmol/min
